# Key:
# [1] = cited from earlier work
# [2] = stability of dicycloplatin to heat / hot water (evaporation, slurry); format: physicochemical
# Procedure: • 1) Dissolved 50.0 mg of carboplatin (135 μmol) in 2.8 mL of water in a 3-mL glass vial at RT. • 2) Added 19.4 mg of 1,1-cyclobutane dicarboxylic acid (135 μmol) into the same vial. • 3) Stirred the suspension at RT to obtain a clear solution. • 4) Transferred the clear solution to a 25-mL round-bottom flask and rotary evaporated at a temperature between 50° C. and 55° C. to obtain white crystal solid. • 5) Air-dried the solid to obtain a product.
# (§1) Moreover, in additional polymorph studies of dicycloplatin, it was recognized that the use of shorter aliphatic alcohols (as reported in U.S. Pat. No. 6,699,901) such as methanol, ethanol, isopropanol and butanol led to a significant amount of carboplatin being left in the product because of disproportionation. […] Thus, recrystallization in water was not efficient and was difficult to scale up.
# [3] = water solubility of dicycloplatin; format: physicochemical; conditions: room temperature
# Text: as §1
substance,measurement,setting,value
dicycloplatin,recommended Phase II dosage,[1]; DCP-containing chemotherapy,450 mg/m^2
same,bioavailability and stability in vivo,"[1]; in vivo, Chinese cancer patients",favorable
same,thermal stability during evaporation,"[2]; evaporation step of the reported process (U.S. Pat. No. 6,699,901)",sensitive to high temperature
same,stability of a slurry in hot water,[2]; slurry in hot water,partial hydrolysis
same,water solubility,[3],40 mg/mL

# Reference: patent publication US9447130B1, “Process for the preparation of dicycloplatin” (Syn-Nat Products Enterprise LLC, priority 2015, dated 2016)
